# Assay results taken from patent USRE45173E1, “Inhibitors of CYP 17” (Novartis AG, priority 2009, dated 2014).
# Structures can show the parent of a compound that is named as a salt.
# Molecular target: recombinant human CYP17 enzyme (Homo sapiens (Human), UniProt P05093)
# Assay: Cytochrome P450, 17-20 lyase (CYP17-lyase) assay, tritiated acetic acid release from 17-α-hydroxy pregnenolone [21-3H]
# Format: biochemical
# Conditions: human CYP17, substrate 0.25 μM; read-out: Lyase IC 50 nM Human/Rat (Human)
# From the text: Assay method was adopted from a published protocol with some modifications to suit our requirements (Dmitry N Grigoryev et al, Analytical Biochemistry, (1999) 267, 319-330). […] Chloroform extraction removes the radioactive steroids and acetic acid is taken into aqueous layer. The tritiated acetic acid released in the assay thus extracted is quantified to determine the enzyme activity. […] The purified cell membrane preparations were used as the source for Human CYP17 enzyme. […] O, Nijar, et al., J Med Chem, (1998) 41, 902-912). […] Km for this substrate was determined by monitoring the tritiated acetic acid release as a function of substrate concentration. […] For the Km determination, the data was fit to a hyperbolic equation (Graphpad Prism® software IV). […] (Dmitry N. Grigoryev et al, Analytical Biochemistry (1999) 267, 319-330) […] NADPH is used at a final concentration of 4.2 mM. Total reaction volume was made up to 50 μL with 50 mM Phosphate buffer pH 7.5. The reaction mixture was incubated at room temperature for 90 minutes with gentle shaking. The reaction was stopped by the addition of 100 μL of buffer. 500 μL of 5% freshly prepared activated charcoal was added to the solution and mixed well by vortexing. The samples were centrifuged at 17568×g for 5 minutes. (14000 rpm). The supernatant was carefully transferred to fresh tube and 1.3 mL of scintillation fluid was added, mixed by vortexing. The radioactivity was measured in a 1450 MicroBeta TriLux™ scintillation counter from Wallac-Perkin Elmer®, USA. The measurements were carried out in 2.0 mL Eppendorforf™ tubes. […] The amount of tritiated acetic acid released is proportional to the lyase activity. Percent lyase activity in presence of inhibitor was calculated using the formula given below. […] Enzyme reaction in presence of inhibitor. • Positive control: […] For IC50 determination, the % inhibition was plotted as a function of inhibitor concentration. The data was fitted to sigmoidal equation using Graphpad Prism® software IV to generate IC50 values.
# Chain of recombinant human CYP17 enzyme (P05093 whole entry): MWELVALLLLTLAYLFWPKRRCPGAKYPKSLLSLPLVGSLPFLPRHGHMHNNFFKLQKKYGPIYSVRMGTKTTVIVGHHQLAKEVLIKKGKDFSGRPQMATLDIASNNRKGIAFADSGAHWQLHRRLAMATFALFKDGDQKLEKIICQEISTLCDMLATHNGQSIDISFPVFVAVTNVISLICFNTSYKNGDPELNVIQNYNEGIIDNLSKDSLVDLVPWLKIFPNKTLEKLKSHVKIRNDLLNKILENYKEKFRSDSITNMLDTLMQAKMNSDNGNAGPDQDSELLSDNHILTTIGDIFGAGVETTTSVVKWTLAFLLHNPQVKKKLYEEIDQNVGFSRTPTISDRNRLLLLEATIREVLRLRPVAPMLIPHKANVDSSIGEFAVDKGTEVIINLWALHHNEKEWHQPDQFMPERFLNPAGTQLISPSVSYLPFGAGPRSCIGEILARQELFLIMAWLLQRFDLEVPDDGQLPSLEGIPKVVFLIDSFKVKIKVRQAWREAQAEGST
row,SMILES,IC50
1,"Cc1ccncc1-n1ccn(-c2ccc3sccc3c2)c1=O [Example 139A, 1-Benzo[b]thiophen-5-yl-3-(4-methyl-pyridin-3-yl)-1,3-dihydro-imidazol-2-one]",83 nM
2,N#Cc1ccncc1N1CCN(c2ccc3ncsc3c2)C1=O [Example 129A],202 nM
3,"Cc1ccncc1N1CCN(c2cccc(Cl)c2)C1=O [Example 88A, 1-(3-Chloro-phenyl)-3-(4-methyl-pyridin-3-yl)-imidazolidin-2-one]",12 nM
4,"Cc1ccncc1N1CCN(c2ccc3[nH]nnc3c2)C1=O [Example 141A, 1-(1H-Benzotriazol-5-yl)-3-(4-methyl-pyridin-3-yl)-imidazolidin-2-one Hydrochloride]",13 nM
5,"O=C1N(c2ccc3ncsc3c2)CCN1c1cnccc1CN1CCOCC1 [Example 177A, 1-benzothiazol-6-yl-3-(4-morpholin-4-ylmethyl-pyridin-3-yl)-imidazolidin-2-one]",32 nM
6,"Cc1ccncc1N1CCN(c2ccc(F)c(C(F)F)c2)C1=O [Example 91A, 1-(3-Difluoromethyl-4-fluoro-phenyl)-3-(4-methyl-pyridin-3-yl)-imidazolidin-2-one]",4.3 nM
7,"Cc1ccncc1N1CCN(c2ccnc(Cl)c2)C1=O [Example 58A, 1-(2-Chloro-pyridin-4-yl)-3-(4-methyl-pyridin-3-yl)-imidazolidin-2-one]",27 nM
8,"Cc1ccncc1N1CCN(c2cccc(C#N)c2)C1=O [Example 106A, 3-[3-(4-Methyl-pyridin-3-yl)-2-oxo-imidazolidin-1-yl]-benzonitrile]",35 nM
9,"Cc1ccncc1-n1ccn(-c2ccc(F)c(C(F)F)c2)c1=O [Example 91B, 1-(3-Difluoromethyl-4-fluoro-phenyl)-3-(4-methyl-pyridin-3-yl)-1,3-dihydro-imidazol-2-one]",22 nM
10,"Cc1ccncc1N1CCN(c2cccc(Cl)c2F)C1=O [Example 86A, 1-(3-Chloro-2-fluoro-phenyl)-3-(4-methyl-pyridin-3-yl)-imidazolidin-2-one]",1200 nM
11,Cc1ccncc1N1CCN(c2cc3c(C)nccc3s2)C1=O [Example 194A],21 nM
12,"Cc1ccncc1N1CCN(c2ccn3c(Cl)cnc3c2)C1=O [Example 145A, 1-(3-Chloro-imidazo[1,2-a]pyridin-7-yl)-3-(4-methyl-pyridin-3-yl)-imidazolidin-2-one]",31 nM
13,"Cc1ccncc1N1CCN(c2ccc3c(N)n[nH]c3c2)C1=O [Example 123A, 1-(3-Amino-1H-indazol-6-yl)-3-(4-methyl-pyridin-3-yl)-imidazolidin-2-one]",10 nM
14,"Cc1ccncc1N1CCN(c2ccc3c(=O)[nH][nH]c3c2)C1=O [Example 135A, 6-[3-(4-Methyl-pyridin-3-yl)-2-oxo-imidazolidin-1-yl]-1,2-dihydro-indazol-3-one]",15.9 nM
15,"Cc1cc(N2CCN(c3cnccc3C)C2=O)ccn1 [Example 100A, 1-(4-Methyl-pyridin-3-yl)-3-(2-methyl-pyridin-4-yl)-imidazolidin-2-one]",46 nM
16,"Cc1ccncc1N1CCN(c2ccc3c(cnn3C)c2)C1=O [Example 114A, 1-(1-Methyl-1H-indazol-5-yl)-3-(4-methyl-pyridin-3-yl)-imidazolidin-2-one]",24 nM
17,"CC1(C)CN(c2ccc3ncsc3c2)C(=O)N1c1cccnc1 [Example 164A, 1-Benzothiazol-6-yl-4,4-dimethyl-3-pyridin-3-yl-imidazolidin-2-one]",70 nM
18,"Cc1ccncc1N1CCN(c2ccc3c(C(F)(F)F)n[nH]c3c2)C1=O [Example 160A, 1-(4-methylpyridin-3-yl)-3-(3-(trifluoromethyl)-1H-indazol-6-yl)imidazolidin-2-one]",34 nM
19,"Cc1ccncc1N1CCN(c2ccc3c(C)noc3c2)C1=O [Example 111A, 1-(3-Methyl-benzo[d]isoxazol-6-yl)-3-(4-methyl-pyridin-3-yl)-imidazolidin-2-one]",106 nM
20,"Cc1ccncc1N1CCN(c2ccc3[nH]nc(C)c3c2)C1=O [Example 95A, 1-(3-Methyl-1H-indazol-5-yl)-3-(4-methyl-pyridin-3-yl)-imidazolidin-2-one]",119 nM
21,"O=C1N(c2ccc3ncsc3c2)CCN1c1cnccc1Cl [Example 84A, 1-Benzothiazol-6-yl-3-(4-chloro-pyridin-3-yl)-imidazolidin-2-one]",85 nM
22,"O=C1N(c2ccc3ncsc3c2)CCN1c1cnccc1C(F)F [Example 125A, 1-Benzothiazol-6-yl-3-(4-difluoromethyl-pyridin-3-yl)-imidazolidin-2-one]",17 nM
23,"Cc1ccncc1N1CCN(c2ccc3c(c2)CCC3)C1=O [Example 138A, 1-Indan-5-yl-3-(4-methyl-pyridin-3-yl)-imidazolidin-2-one]",13 nM
24,"Cc1ccncc1N1CCN(c2csc3ccccc23)C1=O [Example 109A, 1-Benzo[b]thiophen-3-yl-3-(4-methyl-pyridin-3-yl)-imidazolidin-2-one]",158 nM
25,"Cc1ccncc1N1CCN(c2ccc3[nH]cnc3c2)C1=O [Example 108A, 1-(1H-Benzoimidazol-5-yl)-3-(4-methyl-pyridin-3-yl)-imidazolidin-2-one]",363 nM

# The remaining lines, values ahead:
row,IC50,SMILES
1,38 nM,"CC(O)c1ccncc1N1CCN(c2ccc3ncsc3c2)C1=O (stereo not drawn) [Example 158A, 1-(benzo[d]thiazol-6-yl)-3-(4-(1-hydroxyethyl)pyridin-3-yl)imidazolidin-2-one]"
2,426 nM,"Cc1ccncc1N1CCN(c2ccc3scnc3c2)C1=O [Example 62A, 1-Benzothiazol-5-yl-3-(4-methyl-pyridin-3-yl)-imidazolidin-2-one]"
3,35 nM,"Cc1ccncc1N1CCN(c2ccc3c(c2)OC(F)(F)O3)C1=O [Example 64A, 1-(2,2-Difluoro-benzo[1,3]dioxol-5-yl)-3-(4-methyl-pyridin-3-yl)-imidazolidin-2-one]"
4,44 nM,"O=C1N(c2ccc3ncsc3c2)CCN1c1cnccc1C(F)(F)F [Example 128A, 1-Benzothiazol-6-yl-3-(4-trifluoromethyl-pyridin-3-yl)-imidazolidin-2-one]"
5,32 nM,"Cc1ccncc1N1CC(C)N(c2ccc3ncsc3c2)C1=O (stereo not drawn) [Example 166A, 3-Benzothiazol-6-yl-4-methyl-1-(4-methyl-pyridin-3-yl)-imidazolidin-2-one]"
6,496 nM,"CC(=O)Nc1ccncc1N1CCN(c2ccc3ncsc3c2)C1=O [Example 150A, N-[3-(3-Benzothiazol-6-yl-2-oxo-imidazolidin-1-yl)-pyridin-4-yl]-acetamide]"
7,7 nM,"Nc1ccncc1N1CCN(c2ccc3ncsc3c2)C1=O [Example 152A, 1-(4-Amino-pyridin-3-yl)-3-benzothiazol-6-yl-imidazolidin-2-one Hydrochloride Salt]"
8,51 nM,Cc1ccncc1N1CCN(c2ccc(C(F)(F)F)cc2)C1=O [Example 50A]
9,70 nM,"Cc1ccncc1N1CCN(c2ccc(Cl)cc2)C1=O [Example 38A, 1-(4-Chloro-phenyl)-3-(4-methyl-pyridin-3-yl)-imidazolidin-2-one]"
10,109 nM,"Cc1ccncc1N1CCN(c2ccn3ccnc3c2)C1=O [Example 73A, 1-imidazolidin-2-one]"
11,116 nM,"Cc1ccncc1N1CCN(c2ccc3c(N)nn(C)c3c2)C1=O [Example 143A, 1-(3-Amino-1-methyl-1H-indazol-6-yl)-3-(4-methyl-pyridin-3-yl)-imidazolidin-2-one]"

# Same assay, conditions: human CYP17, substrate 0.25 μM; read-out: Lyase IC 50 Human/Rat (Human)
row,SMILES,IC50
1,"Cc1ccncc1N1CCN(c2cc3cnccc3s2)C1=O [Example 120A, 1-(4-Methyl-pyridin-3-yl)-3-thieno[3,2-c]pyridin-2-yl-imidazolidin-2-one]",4000 nM
2,"CN1CCC(COc2ccncc2N2CCN(c3ccc4ncsc4c3)C2=O)CC1 [Example 184A, 1-Benzothiazol-6-yl-3-[4-(1-methyl-piperidin-4-ylmethoxy)-pyridin-3-yl]-imidazolidin-2-one]",> 10000 nM
3,"Cc1ccncc1N1CCCN(c2ccc3ccccc3c2)C1=O [Example 130A, 1-(4-Methyl-pyridin-3-yl)-3-naphthalen-2-yl-tetrahydro-pyrimidin-2-one]",> 10000 nM

# Continued, values first:
row,IC50,SMILES
1,> 10000 nM,"CC(C)(O)c1ccncc1N1CCN(c2ccc3ncsc3c2)C1=O [Example 156A, 1-(benzo[d]thiazol-6-yl)-3-(4-(2-hydroxypropan-2-yl)pyridin-3-yl)imidazolidin-2-one]"
2,> 10000 nM,"Cc1nc2cc(N3CCN(c4cnccc4C)C3=O)ccc2o1 [Example 93A, 1-(2-Methyl-benzooxazol-5-yl)-3-(4-methyl-pyridin-3-yl)-imidazolidin-2-one]"
3,> 10000 nM,"Cc1ccncc1N1CC(C)(C)N(c2ccc3ncsc3c2)C1=O [Example 163A, 3-Benzothiazol-6-yl-4,4-dimethyl-1-(4-methyl-pyridin-3-yl)-imidazolidin-2-one]"
